Measured values as given in patent US20110236349A1, “Use of Epidermal Growth Factor Inhibitors in the Treatment of Viral Infection” (priority 2008, published 2011).

Legend:
[1] = tested on: Rhinovirus 16; assay: Rhinovirus 16 infection of NCI-H292 airway epithelial cells, quantified by viral plaque assay on HeLa cells; type: cell-based, Rhinovirus 16 (major group) in human NCI-H292 cells; settings: AG 1478 10 μM; RV16 MOI 10; NCI-H292 cell lysates; n=2
Method: The effect of an EGF-R inhibitor on rhinovirus infectivity was assayed. First, human airway epithelial (NCI-H292 American Type Culture Collection Catalog No. CRL-1848) cells were treated with Rhinovirus 16 (major group Rhinovirus (RV) at multiplicity of infection (MOI) 10) or RV16 plus a selective EGFR tyrosine kinase inhibitor (AG 1478) at 10 μM. Cell lysates from these NCI-H292 cell cultures were collected at […]. To quantitate Rhinovirus infection in airway epithelial cells, cell lysates were analyzed by viral plaque assay, a technique that is commonly utilized to measure viral infection. Next, serial dilutions of NCI-H292 cell lysates were placed on HeLa cell cultures for a standard plaque assay. Cell cultures were covered with an agarose overlay. Cultures were incubated for three days. After three days, cell cultures were stained with crystal violet and the number of plaques was counted. […] FIG. 1A. […]
The effect of an antibody specific for EGF-R on Rhinovirus 16 (RV16) infection was also assessed. […]
FIGS. 1A and 1B. Viral quantification of Rhinovirus infection by plaque assay. […] Cell lysates were collected after 24 h and Rhinovirus infection was quantified by plaque assay [(A) n=2±SEM; (B) n=1].

[2] = tested on: Rhinovirus 16; assay: Rhinovirus 16 infection of HeLa cells measured by flow cytometry; type: cell-based, Rhinovirus 16 (major group) in HeLa cells; settings: RV16 MOI 10, 6 h, RV alone 62%, control 1%
Method: HeLa is an epithelial cell line that is routinely used to evaluate Rhinovirus infection. HeLa; American Type Culture Collections (ATCC) No. CCL-2. Here, HeLa cell cultures were treated with serum-free medium (Control), or with serum-free medium containing Rhinovirus 16 (major group RV at multiplicity of infection (MOI) 10) with and without a selective EGFR tyrosine kinase inhibitor (AG 1478). After 6 h, cell cultures were collected and stained with a monoclonal antibody that selectively binds to Rhinovirus. Cells were processed for flow cytometry and Rhinovirus infection in HeLa cells was measured. The data, shown in FIG. 2, are expressed as percent infected cells. Control (no RV): 1%; RV: 62%; RV+AG1478 (5 μM): 13%; and RV+AG1478 (10 μM): 9%. […] No effect with a platelet derived growth factor (PDGF) inhibitor (another tyrosine kinase inhibitor) was observed.

[3] = tested on: Influenza A/H1N1/PR8; type: cell-based; settings: 10 μM; 24 h; MOI~1; eight fields at 20×; n=4; Influenza alone 316±19 cells; p<0.0001
[4] = tested on: respiratory syncytial virus (RSV); assay: RSV infection of epithelial HeLa cell cultures, viral quantification by TCID50; type: cell-based
Method: To study the effect of a selective EGFR inhibitor on RSV infection, viral quantification by tissue culture-infective dose (TCID50)/100 μL in epithelial HeLa cell cultures treated with or without the selective EGFR tyrosine kinase inhibitor AG 1478 was used. […] FIG. 4A, RSV alone 10^2.5±1 TCID50 vs RSV plus AG 1478 (10 μM) 0 TCID50; n=2. FIG. 4B, RSV alone 10^4.38±0.1 TCID50 vs RSV plus AG 1478 (1 μM) 0 TCID50; n=2.
FIGS. 4A and 4B. Viral quantification by tissue culture-infective dose (TCID50)/100 μL in epithelial cell cultures treated with or without the selective EGFR inhibitor, AG 1478 [(A) AG1478 (10 μM) in TCID50/100 μL at 2 days ±SEM, (n=2 separate experiments); (B) AG 1478 (1 μM) in TCID50/100 μL at 4 days ±SEM, (n=2 separate experiments).
A similar set of experiments was conducted, to test the effect of Gefitinib (Iressa; ZD 1839; N-(3-chloro-4-fluoro-phenyl)-7-methoxy-6-(3-morpholin-4-ylpropoxy)quinazolin-4-amine) on RSV infection. Gefitinib (1 and 10 μM) suppressed RSV virus infection. The data are shown in FIG. 5 (RSV alone 10^1.5 TCID50 (first column), RSV plus Gefitinib (1 μM) 0 TCID50 (second column), and RSV plus Gefitinib (10 μM) 0 TCID50 (third column); n=1).
FIG. 5. Viral quantification by tissue culture-infective dose (TCID50)/100 μL at 2 days in epithelial cell cultures treated with or without the selective EGFR inhibitor, Gefitinib. RSV alone (first column), RSV plus Gefitinib (1 μM, second column), and RSV plus Gefitinib (10 μM, third column); n=1.

Row | SMILES | Rhinovirus infection by plaque assay [1] | percent infected cells ([2]; 5 μM) [%] | percent infected cells ([2]; 10 μM) [%] | cells staining positive for Influenza [3] [cells] | RSV tissue culture-infective dose (TCID50) ([4]; 1 μM, at 4 days, HeLa, RSV alone 10^4.38±0.1, n=2) [TCID50/100 μL] | RSV tissue culture-infective dose (TCID50) ([4]; 10 μM, at 2 days, HeLa) [TCID50/100 μL] | RSV tissue culture-infective dose (TCID50) ([4]; 1 μM, at 2 days, RSV alone 10^1.5, n=1) [TCID50/100 μL]
1 | COc1cc2ncnc(Nc3cccc(Cl)c3)c2cc1OC [AG 1478, 4-(3-chlorophenylamino)-6,7-dimethoxyquinazoline] | suppress rhinovirus infection | 13 | 9 | 94±49 | 0 | 0 | –
2 | COc1cc2ncnc(Nc3ccc(F)c(Cl)c3)c2cc1OCCCN1CCOCC1 [Gefitinib, N-(3-chloro-4-fluoro-phenyl)-7-methoxy-6-(3-morpholin-4-ylpropoxy)quinazolin-4-amine] | – | – | – | – | – | 0 | 0
